Assay results as given in PubChem BioAssay (NCI).
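Assay format: 96-well plates, 48-hour exposure. The concentration for 50% growth inhibition is given as GI50. The concentration for full growth arrest is given as TGI.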

Assays:
Experiment in all cases: growth of human tumour cells (NCI), 48 h
[1] = tested on: HL-60(TB) leukemia
[2] = tested on: HCC-2998 colon
[3] = tested on: SW-620 colon
[4] = tested on: SNB-19 CNS
[5] = tested on: CCRF-CEM leukemia
[6] = tested on: SK-OV-3 ovarian
[7] = tested on: EKVX NSCLC
[8] = tested on: HT29 colon
[9] = tested on: A549 NSCLC
[10] = tested on: LOX IMVI melanoma
[11] = tested on: IGROV1 ovarian
[12] = tested on: HCT-116 colon
[13] = tested on: DU-145 prostate
[14] = tested on: SK-MEL-5 melanoma
[15] = tested on: M14 melanoma
[16] = tested on: KM12 colon
[17] = tested on: CAKI-1 renal
[18] = tested on: MDA-MB-435
[19] = tested on: OVCAR-4 ovarian
[20] = tested on: ACHN renal
[21] = tested on: K-562 leukemia
[22] = tested on: SF-295 CNS
[23] = tested on: MCF7 breast
[24] = tested on: PC-3 prostate
[25] = tested on: RPMI-8226 leukemia
[26] = tested on: UO-31 renal
[27] = tested on: SN12C renal
[28] = tested on: HOP-62 NSCLC
[29] = tested on: NCI-H460 lung
[30] = tested on: NCI-H226 lung
[31] = tested on: NCI-H522 lung
[32] = tested on: SK-MEL-28 melanoma
[33] = tested on: UACC-62 melanoma
[34] = tested on: 786-0 renal
[35] = tested on: U251 CNS
[36] = tested on: HOP-92 NSCLC
[37] = tested on: SR leukemia
[38] = tested on: OVCAR-5 ovarian
[39] = tested on: UACC-257 melanoma
[40] = tested on: NCI-H23 lung
[41] = tested on: A498 renal
[42] = tested on: SF-539 CNS
[43] = tested on: TK-10 renal
[44] = tested on: SNB-75 CNS
[45] = tested on: HS 578T breast
[46] = tested on: MALME-3M melanoma
[47] = tested on: OVCAR-8 ovarian
[48] = tested on: SK-MEL-2 melanoma
[49] = tested on: MDA-MB-231 breast
[50] = tested on: T-47D breast
[51] = tested on: SF-268 CNS
[52] = tested on: HCT-15 colon
[53] = tested on: OVCAR-3 ovarian
[54] = tested on: COLO 205 colon
[55] = tested on: RXF 393 renal
[56] = tested on: NCI/ADR-RES ovarian

`CC(=O)O[C@H]1CC[C@@]2(C)C(=CC[C@H]3[C@@H]4C/C(=C\c5cccc(OCCN6CCOCC6)c5)[C@H](OC(C)=O)[C@@]4(C)CC[C@@H]32)C1` was tested, and the GI50 [1] was 3.61 µM, the TGI [1] was 14.6 µM and the GI50 [2] was 5.32 µM. It also gave a TGI [2] of 17.6 µM, a GI50 [3] of 4.87 µM and a TGI [3] of 15.7 µM. For the same compound, the GI50 [4] was 9.13 µM, the TGI [4] was 29.3 µM and the GI50 [5] was 3.87 µM. It also gave a TGI [5] of 16.7 µM, a GI50 [6] of 6.85 µM and a TGI [6] of 34 µM. The GI50 [7] was 11 µM, the TGI [7] was 36.7 µM and the GI50 [8] was 2.16 µM. It also gave a TGI [8] of 5.11 µM, a GI50 [9] of 5.05 µM and a TGI [9] of 20.5 µM. The GI50 [10] was 5.94 µM, the TGI [10] was 18.4 µM and the GI50 [11] was 25.6 µM. It also gave a TGI [11] of 80.2 µM, a GI50 [12] of 4.1 µM and a TGI [12] of 15.9 µM. It also gave a GI50 [13] of 23.3 µM, a TGI [13] greater than 100 µM and a GI50 [14] of 10.5 µM. It also gave a TGI [14] of 22.3 µM, a GI50 [15] of 5.91 µM and a TGI [15] of 18.9 µM. The GI50 [16] was 3.84 µM, the TGI [16] was 14.2 µM and the GI50 [17] was 12.2 µM. For the same compound, the TGI [17] was 59 µM, the GI50 [18] was 11.1 µM and the TGI [18] was 23.1 µM. The GI50 [19] was 8.16 µM, the TGI [19] was greater than 100 µM and the GI50 [20] was 13.8 µM. For the same compound, the TGI [20] was 42.9 µM, the GI50 [21] was 2.95 µM and the TGI [21] was 12.5 µM. For the same compound, the GI50 [22] was 2.48 µM, the TGI [22] was 10.5 µM and the GI50 [23] was 10.4 µM. The TGI [23] was 84.5 µM, the GI50 [24] was 4.5 µM and the TGI [24] was 16.4 µM. It also gave a GI50 [25] of 2.99 µM, a TGI [25] of 9.92 µM and a GI50 [26] of 6.43 µM. For the same compound, the TGI [26] was 19.3 µM, the GI50 [27] was 25 µM and the TGI [27] was greater than 100 µM. The GI50 [28] was 6.29 µM, the TGI [28] was 19.5 µM and the GI50 [29] was 6.39 µM. It also gave a TGI [29] of 20.7 µM, a GI50 [30] of 17.9 µM and a TGI [30] of 85.9 µM. For the same compound, the GI50 [31] was 12.9 µM, the TGI [31] was 27.5 µM and the GI50 [32] was 5.48 µM. It also gave a TGI [32] of 17.6 µM, a GI50 [33] of 6.1 µM and a TGI [33] of 19.1 µM. The GI50 [34] was 2.63 µM, the TGI [34] was 7.96 µM and the GI50 [35] was 4.58 µM. For the same compound, the TGI [35] was 16.6 µM, the GI50 [36] was 4.32 µM and the TGI [36] was 16.8 µM. The GI50 [37] was 5.47 µM, the TGI [37] was 18.6 µM and the GI50 [38] was 15 µM. It also gave a TGI [38] of 56.2 µM, a GI50 [39] of 2.79 µM and a TGI [39] of 5.04 µM. The GI50 [40] was 6.97 µM, the TGI [40] was 23.8 µM and the GI50 [41] was 15.3 µM. It also gave a TGI [41] of 29.1 µM, a GI50 [42] of 3.64 µM and a TGI [42] of 13.9 µM. It also gave a GI50 [43] of 11.6 µM, a TGI [43] of 48.7 µM and a GI50 [44] of 3.85 µM. It also gave a TGI [44] of 22.8 µM, a GI50 [45] of 3.07 µM and a TGI [45] of 10.9 µM. It also gave a GI50 [46] of 11.4 µM, a TGI [46] of 23.5 µM and a GI50 [47] of 8.69 µM. It also gave a TGI [47] of 20.8 µM, a GI50 [48] of 12.2 µM and a TGI [48] of 24.5 µM. For the same compound, the GI50 [49] was 3.12 µM, the TGI [49] was 13.3 µM and the GI50 [50] was 4.18 µM. For the same compound, the TGI [50] was 22.5 µM, the GI50 [51] was 12.6 µM and the TGI [51] was 58.8 µM. For the same compound, the GI50 [52] was 2.95 µM, the TGI [52] was 11.5 µM and the GI50 [53] was 44.7 µM. It also gave a TGI [53] greater than 100 µM, a GI50 [54] of 6.46 µM and a TGI [54] of 19.4 µM.
`CC(=O)[C@@H]1CCC=C2CC[C@]3(C)[C@@H](CC[C@@H]4[C@@]5(C)CCCNC(C)(C)[C@@H]5CC[C@]43C)[C@H]21` was tested, and the GI50 [5] was 2.27 µM, the TGI [5] was 5.63 µM and the GI50 [6] was 1.81 µM. The TGI [6] was 3.37 µM, the GI50 [55] was 1.74 µM and the TGI [55] was 3.32 µM. It also gave a GI50 [8] of 1.2 µM, a TGI [8] of 2.58 µM and a GI50 [9] of 2.02 µM. For the same compound, the TGI [9] was 3.73 µM, the GI50 [56] was 1.98 µM and the TGI [56] was 3.8 µM. It also gave a GI50 [11] of 1.69 µM, a TGI [11] of 3.28 µM and a GI50 [13] of 1.77 µM. It also gave a TGI [13] of 3.33 µM, a GI50 [16] of 1.93 µM and a TGI [16] of 3.6 µM. The GI50 [17] was 1.81 µM, the TGI [17] was 3.22 µM and the GI50 [18] was 1.87 µM. For the same compound, the TGI [18] was 3.49 µM, the GI50 [19] was 1.86 µM and the TGI [19] was 3.39 µM. The GI50 [22] was 1.81 µM, the TGI [22] was 3.26 µM and the GI50 [23] was 1.37 µM. The TGI [23] was 2.92 µM, the GI50 [24] was 1.65 µM and the TGI [24] was 3.06 µM. For the same compound, the GI50 [26] was 1.52 µM, the TGI [26] was 2.89 µM and the GI50 [27] was 1.79 µM. It also gave a TGI [27] of 3.31 µM, a GI50 [28] of 1.82 µM and a TGI [28] of 3.4 µM. The GI50 [31] was 1.93 µM, the TGI [31] was 3.5 µM and the GI50 [32] was 1.81 µM. The TGI [32] was 3.35 µM, the GI50 [33] was 1.73 µM and the TGI [33] was 3.16 µM. The GI50 [35] was 1.76 µM, the TGI [35] was 3.27 µM and the GI50 [36] was 1.37 µM. For the same compound, the TGI [36] was 2.77 µM, the GI50 [39] was 2.19 µM and the TGI [39] was 4.29 µM. The GI50 [41] was 2.03 µM, the TGI [41] was 3.79 µM and the GI50 [43] was 1.88 µM. It also gave a TGI [43] of 3.45 µM, a GI50 [45] of 1.87 µM and a TGI [45] of 4.39 µM. The GI50 [47] was 1.99 µM, the TGI [47] was 3.94 µM and the GI50 [48] was 2.01 µM. For the same compound, the TGI [48] was 3.69 µM, the GI50 [49] was 1.81 µM and the TGI [49] was 3.35 µM. The GI50 [50] was 1.72 µM, the TGI [50] was 3.47 µM and the GI50 [52] was 1.44 µM. The TGI [52] was 2.84 µM, the GI50 [54] was 1.38 µM and the TGI [54] was 2.79 µM.
